Entries after “also recorded” stand apart in the source; their conditions may differ.
How the values were obtained:
p38 MAP kinase pathway = test: Activation of the p38 MAP kinase pathway in H460 cells (Western blot); format: cell-based, human; conditions: for activation of the p38 MAP kinase pathway (phosphorylation of MKK3/6, p38 MAPK): H460 cells, 20 nM RNA, 2-6 h
Description: Both siRNAs were directed against the mRNA of the same gene TLK1.

SAPK/JNK pathway = test: Activation of the SAPK/JNK pathway in H460 cells (Western blot); format: cell-based, human; conditions: for activation of the SAPK/JNK pathway (phosphorylation of MKK4, SAPK/JNK): H460 cells, 20 nM RNA, 2-6 h
TAK1-D/TAB1 complex = target: T1, TAK1-D/TAB1 complex (Homo sapiens, UniProt O43318); test: In vitro kinase assay with purified FLAG-TAK1-D/His-TAB1; format: biochemical; conditions: purified proteins, cell-free
T1 construct: made in house; host or cells: HeLa cells
T1 sequence (O43318 1-491 isoform O43318-4): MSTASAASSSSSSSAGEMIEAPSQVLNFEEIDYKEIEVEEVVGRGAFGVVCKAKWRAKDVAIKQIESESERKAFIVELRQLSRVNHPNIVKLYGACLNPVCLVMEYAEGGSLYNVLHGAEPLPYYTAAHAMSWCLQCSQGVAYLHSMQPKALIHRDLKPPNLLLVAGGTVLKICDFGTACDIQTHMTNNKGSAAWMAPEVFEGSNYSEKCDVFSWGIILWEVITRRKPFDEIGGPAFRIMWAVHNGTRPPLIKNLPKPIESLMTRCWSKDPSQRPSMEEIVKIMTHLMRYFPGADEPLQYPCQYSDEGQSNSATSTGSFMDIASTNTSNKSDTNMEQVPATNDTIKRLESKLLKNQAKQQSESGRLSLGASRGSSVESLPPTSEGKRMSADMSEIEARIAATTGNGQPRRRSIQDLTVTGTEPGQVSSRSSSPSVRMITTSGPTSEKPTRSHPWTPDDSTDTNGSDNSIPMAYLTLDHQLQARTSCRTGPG
T1 sequence (Q15750 1-504 partner): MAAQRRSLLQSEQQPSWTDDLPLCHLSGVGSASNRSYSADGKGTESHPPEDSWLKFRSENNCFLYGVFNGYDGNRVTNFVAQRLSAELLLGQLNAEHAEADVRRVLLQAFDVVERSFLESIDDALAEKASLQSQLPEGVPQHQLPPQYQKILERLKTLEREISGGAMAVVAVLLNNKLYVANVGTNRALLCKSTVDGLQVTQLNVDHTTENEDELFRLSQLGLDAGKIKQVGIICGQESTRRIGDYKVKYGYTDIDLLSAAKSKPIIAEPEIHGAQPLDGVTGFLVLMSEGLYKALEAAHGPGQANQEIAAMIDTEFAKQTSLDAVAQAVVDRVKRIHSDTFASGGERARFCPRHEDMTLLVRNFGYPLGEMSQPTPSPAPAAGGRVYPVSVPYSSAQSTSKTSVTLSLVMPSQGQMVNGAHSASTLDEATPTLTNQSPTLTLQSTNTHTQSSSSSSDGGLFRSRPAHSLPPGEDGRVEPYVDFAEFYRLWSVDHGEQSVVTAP
Description: FIGS. 2A-C: Effect of dsRNAs on the activity of purified recombinant TAK1-D protein. (FIG. 2A) In vitro kinase assay showing the activation of TAK1-D autophosphorylation by siRNA si5. FLAG-tagged TAK1-D and His-tagged TAB1 were coexpressed in Hela cells and purified by immunoprecipitation with anti FLAG antibody. […] Error bars indicate the standard error of 3 experiments.
To verify if siRNA si5 indeed interacts with TAK1-D directly, the activation of the kinase was studied in vitro using purified proteins. […] To test whether the increased activation of the TAK1-D/TAB1 complex by siRNA si5 is caused by an increased affinity of the RNA molecule to the kinase, binding of radiolabeled siRNAs to immunoprecipitated FLAG tagged TAK1-D was measured. In FIG. 2C the amount of RNA bound to immobilized FLAG-TAK1-D is given.
FLAG-tagged TAK1-D and HIS-tagged TAB1 were co-expressed in HeLa cells and the proteins were purified through immunoprecipitation with an anti-FLAG antibody.

cdc25B = test: Nuclear cdc25B level in NCI-H460 cells; format: cell-based, human
Description: P38 MAPK as well as SPK/JNK have a large number of downstream targets. Amongst these, the phosphorylation of the cell cycle control phosphatase cdc25 (Bulavin et al., 2001; Goss et al., 2003) are of particular interest, as these phosphorylations have the potential to transduce an immediate and direct effect of TAK1-D activation to the cell cycle. […] In contrast, both cdc25A and cdc25B were found in the nucleus and therefore capable of cell cycle control. […] The occurrence of this shifted form of cdc25A is indicative of phosphorylation and inactivation of cdc25A (Zhao et al., 2002). The amount of cdc25B in the nucleus decreases with kinetics similar to the phosphorylation of cdc25A, indicative for a phosphorylation dependent translocation and proteolytic digestion of cdc25B (Cans et al., 1999). Therefore, it can be concluded that activation of TAK1-D in NCI-H460 cells leads to an inactivation of cdc25A and cdc25B through p38 MAPK and SAPK/JNK mediated phosphorylation and proteolytic destruction.

H460 xenograft tumors = test: H460 xenograft tumor growth after intratumoral injection; format: in vivo
Procedure: In order to test whether the proposed treatment approach for NSCLC using dsRNA-mediated activation of TAK1-D is feasible in vivo H460 xenograft tumors grown in athymic NCr nu/nu mice were treated with by intratumoral injection of a liposomal dsRNA preparation. About 10 days after subcutaneous injection of […] H460 cells into the left hind leg of the animals tumors had reached a volume of about 300 μl and were injected with 50 μl of liposomal control RNA or active RNA si5. Liposomes consisting of DOTAP and Cholesterol (1:1) were prepared by sonication and extrusion. RNA was bound to the polycation protamine and liposome/polycation/RNA nanoparticles were prepared by mixing the protamine RNA complex with the liposomes. Finally 4 μg of RNA were injected in a volume of 50 μl on day 0 and 1. […].

TAK1-D = target: T2, TAK1-D (Homo sapiens, UniProt O43318); test: TAK1-D autophosphorylation on T184/T187 in H460 cells (Western blot, phospho-specific antibody); format: cell-based; set-up: endogenous in cells; host or cells: NCI-H460; conditions: for activating autophosphorylation (activation) of TAK1-D on T184 and T187: H460 cells, RNA transfected (20 nM), Western blot
T2 sequence (O43318 1-491 isoform O43318-4): T1 sequence (O43318 1-491 isoform O43318-4)
Procedure: In an effort to identify the MAPKKK responsible for the activation of the p38 MAP kinase and SAPK/JNK pathway, several of these kinases were screened for siRNA si5 mediated activation.
Immunoblot analysis. Western blotting was performed exactly as described previously (Kodym et al., 2008b). In addition to the primary antibodies previously mentioned (Kodym et al., 2008b) the following antibodies were used: S6 ribosomal protein (Cell Signaling #2217), DPM1 (Santa Cruz #sc-15836, Santa Cruz, Calif., USA), and Histone H3 (Cell Signaling #9715).

H460 cells = test: Survival assay of H460 cells, Crystal Violet staining
[1] = H460 stably transfected with K63W vs wt and vector, 4 h

Substance	induced activating phosphorylation of p38 MAPK in cells expressing dominant-negative Tak1-D (K63W) (p38 MAP kinase pathway; H460, adenoviral K63W vs β-galactosidase vector, 20 nM dsRNA 4 h)	activation of the p38 MAP kinase pathway (phosphorylation of MKK3/6, p38 MAPK) (p38 MAP kinase pathway)	activation of the p38 MAP kinase pathway (phosphorylation of MKK3/6, p38 MAPK) (p38 MAP kinase pathway; listed as Si5)	activating phosphorylation of p38 MAP kinase in TAK1-D/K63W transfected cells (p38 MAP kinase pathway; [1])	activation of the SAPK/JNK pathway (phosphorylation of MKK4, SAPK/JNK) (SAPK/JNK pathway)	activation of the SAPK/JNK pathway (phosphorylation of MKK4, SAPK/JNK) (SAPK/JNK pathway; listed as Si5)	activating phosphorylation of SAPK/JNK in TAK1-D/K63W transfected cells (SAPK/JNK pathway; [1])	autophosphorylation activity of the TAK1-D/TAB1 complex (TAK1-D/TAB1 complex)	amount of cdc25B in the nucleus (cdc25B)	normal tissue toxicity (necrosis of skin or tumor vascular system) (H460 xenograft tumors; intratumoral liposomal preparation)	tumor growth kinetics (H460 xenograft tumors; intratumoral, liposome (DOTAP:Cholesterol)/protamine/RNA nanoparticles, 4 μg RNA day 0 and 1)	activating autophosphorylation (activation) of TAK1-D on T184 and T187 (TAK1-D)	autophosphorylation signal of Tak1-D six hours after addition (TAK1-D; NCI-H460 cells, 6 h)	effect on cells, Crystal Violet (H460 cells; H460, 5 nM, 48 h)	effect on cells, Crystal Violet (H460 cells; H460, 10 nM to 20 nM, 48 h)	cell death, crystal violet (H460 cells; H460-wt and H460-vec, 5 or 10 nM, 48 h)	cell death, crystal violet (H460 cells; TAK1-D/K63W transfected H460, 5 or 10 nM, 48 h)	cell death, crystal violet (H460 cells; H460, 48 hours after transfection, shRNA experiment)	toxicity, crystal violet (H460 cells; H460-wt, H460-vec, H460-K63W, 48 h)
si5: 21-mer siRNA against TLK1 mRNA: GGCUUUUGACCUUUAUGAAtt (SEQ ID NO: 2) / ttCCGAAAACUGGAAAUACUU (SEQ ID NO: 3) (sense GGCUUUUGACCUUUAUGAATT; antisense TTCCGAAAACUGGAAAUACUU; chemistry not given here; one strand is listed 3' to 5')	significantly reduced	activation of the p38 MAP kinase pathway; also recorded: able to activate Tak1-D and consecutively p38 MAPK; also recorded: activate the pathway most effectively	phosphorylation and activation of MKK3/6 as well as MKK4	very significant reduction; also recorded: significantly reduced	activation of the stress-activated protein kinase jun-amino-terminal kinase (SAPK/JNK) pathway	phosphorylation and activation of MKK3/6 as well as MKK4	very significant reduction; also recorded: significantly reduced	increase in autophosphorylation activity; also recorded: increased the autophosphorylation activity	decreases	no sign of normal tissue toxicity	tumor growth delay	a si5 induced signal was detected; also recorded: able to activate Tak1-D; also recorded: leads to phosphorylation of TAK1-D	significantly stronger autophosphorylation signal	slight growth retardation	significant cell kill	massive cell death	survive the treatment and not	–	–
si6: control 21-mer siRNA against TLK1 mRNA: GGGUGGAAAUGGCUCAAGUtt (SEQ ID NO: 4) / gtCCCACCUUUACCGAGUUCA (SEQ ID NO: 5) (sense GGGUGGAAAUGGCUCAAGUTT; antisense GTCCCACCUUUACCGAGUUCA; chemistry not given here; one strand is listed 3' to 5') [reference compound]	–	had no effect; also recorded: does not occur; also recorded: No activation	–	–	had no effect; also recorded: does not occur; also recorded: No activation	–	–	not	–	–	–	not triggered	–	–	–	–	–	no cell death or growth inhibition could be observed	no significant toxicity can be observed

Reference: US8163709B2, “TAK1-D mediated induction of cell death in human cancer cells by specific sequence short double-stranded RNAS” (Board of Regents of the University of Texas System, priority 2008, dated 2012)
